This passage reports inhibition, Lipoperoxide inhibition rate and IC50 results from patent US5523407A, “Quinoline derivatives, their production and use as ACAT inhibitors” (Takeda Chemical Industries, Ltd., priority 1989, dated 1996).

The structures appear in SMILES notation.

Experiment [1] addresses T1, Acyl-CoA: cholesterol acyltransferase (ACAT) (Rattus norvegicus, UniProt Q7TQM4).
T1 construct: from the mucosal microsome fraction of the small intestine; from tissue; host or cells: small intestine mucosal microsomes, male 6-week old Sprague-Dawley rats fasted 20 hours
T1 sequence (Q7TQM4 1-524): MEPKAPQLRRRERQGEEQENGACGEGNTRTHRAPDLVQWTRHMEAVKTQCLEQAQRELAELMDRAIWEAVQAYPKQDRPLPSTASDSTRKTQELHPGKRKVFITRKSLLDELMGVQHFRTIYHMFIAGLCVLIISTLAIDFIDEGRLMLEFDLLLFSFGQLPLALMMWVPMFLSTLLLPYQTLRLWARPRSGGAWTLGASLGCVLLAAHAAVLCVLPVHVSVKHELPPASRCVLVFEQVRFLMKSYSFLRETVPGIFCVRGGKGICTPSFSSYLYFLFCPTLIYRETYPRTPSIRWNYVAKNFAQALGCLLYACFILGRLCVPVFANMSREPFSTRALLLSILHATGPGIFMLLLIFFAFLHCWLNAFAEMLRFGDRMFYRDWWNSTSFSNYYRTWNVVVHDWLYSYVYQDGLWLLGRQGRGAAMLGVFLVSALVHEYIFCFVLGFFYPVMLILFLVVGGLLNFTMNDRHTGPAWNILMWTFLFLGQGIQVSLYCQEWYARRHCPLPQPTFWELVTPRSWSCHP
Nature of the experiment: ACAT inhibitory activity (rat small intestine mucosal microsome; labeled cholesterol ester from [1-^14 C] oleoyl-CoA). The format is biochemical, Sprague-Dawley rat. Conditions: 10^-6 M test compound; read-out: ACAT Inhibition Rate. The method, then:
1. Acyl-CoA: cholesterol acyltransferase (ACAT) inhibitory activity
The enzyme ACAT was prepared by the method of Heider et al. described in Journal of Lipid Research, Vol. 24, page 1127 (1982), from the mucosal microsome fraction of the small intestine of male, 6-week old Sprague-Dawley rats which had been fasted for 20 hours.
ACAT activity was calculated by the method of Helgerud et. al. described in Journal of Lipid Research, Vol. 22, page 271 (1981), namely, by measuring the amount of the labeled cholesterol ester produced from [1-^14 C] oleoyl-CoA and endogenous cholesterol.
Inhibition rates (%) of the production of the labeled cholesterol ester wherein 10-^6 M of test compounds were added are shown as an index of ACAT inhibitory activity in Table 1.

The test system of experiment [2] is lipoperoxide production in homogenized brain. Nature of the experiment: Lipoperoxide inhibitory activity (natural oxidation of homogenized rat brain, malonodialdehyde by TBA method). The format is biochemical, Sprague-Dawley rat. As to conditions: for Lipoperoxide inhibition rate: 10^-5 M test compound; for IC50: read-out: Lipoperoxide Inhibitory Activity, 50% inhibitory concentration (IC50). Here is the method:
2. Lipoperoxide inhibitory activity
From 10-week, old, male Sprague-Dawely rats which were fed CE-2 diet (Nippon Claire) and water, their brains were taken out by the method of Stocks disclosed in Clinical Science Molecular Medicine, Vol. 78, page 215 (1974), to form lipoperoxide by natural oxidation. The compound (I) in an amount of 10-^3 moles was dissolved in ethanol, and the resultant (10 μl) was added to each homogenized brain. On the other hand, ethanol from which the compound (I) was removed was added to a control group of homogenized brain. A malonodialdehyde was measured by the (TBA) method disclosed in Okawa et al., Analysis Biochemistry, Vol. 95, page 351 (1979). The produced lipoperoxide was calculated based on the measured value of malonodialdehyde.

`Cc1cc(C)c2ncc(NC(=O)c3cc(C(C)(C)C)c(O)c(C(C)(C)C)c3)c(-c3ccccc3Cl)c2c1` [Example 1, 4-(2-chlorophenyl)-3-(3,5-di-tert-butyl-4-hydroxybenzamido)-6,8-dimethylquinoline]: in experiment [1], the inhibition at 1 µM stood at 82.2%. Turning to `COc1ccc(-c2c(NC(=O)c3cc(C(C)(C)C)c(O)c(C(C)(C)C)c3)cnc3ccc(Cl)cc23)cc1OC` [Example 3, 3-(3,5-di-tert-butyl-4-hydroxybenzamido)-6-chloro-4-(3,4-dimethoxyphenyl)quinoline], the inhibition at 1 µM in experiment [1] turned out to be 83.4%. The same measure, in the same setting: as for `COc1ccc(-c2c(NC(=O)c3cc(C(C)(C)C)c(O)c(C(C)(C)C)c3)cnc3ccc(Cl)cc23)c(OC)c1OC` [Example 4, 3-(3,5-di-tert-butyl-4-hydroxybenzamido)-6-chloro-4-(2,3,4-trimethoxyphenyl) quinoline], the figure is 84.8%; as for `CC(=O)Oc1c(C(C)C)cc(C(=O)Nc2cnc3c(C)cc(C)cc3c2-c2ccccc2Cl)cc1C(C)C` [Example 6, 3-(4-acetoxy-3,5-diisopropylbenzamido)-4-(2-chlorophenyl)-6,8-dimethylquinoline], 79.3%; as for `CC(=O)Oc1c(C)cc(C(=O)Nc2cnc3c(C)cc(C)cc3c2-c2ccccc2Cl)cc1C` [Example 8, 3-(4-acetoxy-3,5-dimethylbenzamido)-4-(2-chlorophenyl)-6,8-dimethylquinoline], 62%. With `Cc1cc(C)c2ncc(NC(=O)c3cc(C)c(O)c(C)c3C)c(-c3ccccc3Cl)c2c1` [Example 11, 4-(2-chlorophenyl)-3-(4-hydroxy-2,3,5-trimethylbenzamido)-6,8-dimethylquinoline], the inhibition at 1 µM in experiment [1] amounted to 94.3%. In experiment [2], `Cc1cc(C)c2ncc(NC(=O)C3(C)CCc4c(C)c(O)c(C)c(C)c4O3)c(-c3ccccc3Cl)c2c1` (stereo not drawn) [Example 12, 4-(2-chlorophenyl)-3-(6-hydroxy-2,5,7,8-tetramethylchroman-2-ylcarbonyl)amino-6,8-dimethylquinoline] registered a Lipoperoxide inhibition rate of 98.5%. Also, in experiment [1], the inhibition at 1 µM was found to be 41.2%. In the same order, the values of `CC(=O)Oc1c(C)c(C)c2c(c1C)CC(C)(C(=O)Nc1cnc3c(C)cc(C)cc3c1-c1ccccc1Cl)O2` (stereo not drawn) [Example 13, 3-(5-acetoxy-2,3-dihydro-2,4,6,7-tetramethylbenzofuran-2-ylcarbonyl)amino-4-(2-chlorophenyl)-6,8-dimethylquinoline] are 71.6% and 64.7%. For the molecule `Cc1cc(C)c2ncc(NC(=O)C3(C)Cc4c(C)c(O)c(C)c(C)c4O3)c(-c3ccccc3Cl)c2c1` (stereo not drawn) [Example 14, 4-(2-chlorophenyl)-3-(2,3-dihydro-5-hydroxy-2,4,6,7-tetramethylbenzofuran-2-ylcarbonyl)amino-6,8-dimethylquinoline], in experiment [2], the Lipoperoxide inhibition rate is recorded as 98.4% and the IC50 was 370 nM. Besides, the inhibition at 1 µM in experiment [1] worked out at 83.1%.

Take `CC1=C(C(=O)Nc2cnc3c(C)cc(C)cc3c2-c2ccccc2Cl)Sc2ccccc2N1` [Example 15, 4-(2-chlorophenyl)-6,8-dimethyl-3-(3-methyl-4H-1,4-benzothiazin-2-ylcarbonyl) aminoquinoline]: the inhibition at 1 µM in experiment [1] worked out at 76%. Turning to `CC1=C(C(=O)Nc2cnc3c(C)cc(C)cc3c2-c2ccccc2Cl)Sc2cc(F)ccc2N1` [Example 16, 4-(2-chlorophenyl)-3-(7-fluoro-3-methyl-4H-1,4-benzothiazin-2-ylcarbonyl)amino-6,8-dimethylquinoline], in experiment [2], the Lipoperoxide inhibition rate is 100% and the IC50 stood at 1200 nM. In addition, the inhibition at 1 µM in experiment [1] came out at 72.6%. On to `Cc1cc(C)c2ncc(NC(=O)Cc3ccc(F)cc3F)c(-c3ccccc3Cl)c2c1` [Example 18, 4-(2-chlorophenyl)-3-(2,4-difluorophenylacetylamino)-6,8-dimethylquinoline], for which, in experiment [1], the inhibition at 1 µM was 94%.

Consider `COc1ccc(C=CC(=O)Nc2cnc3cc(C)c(C)cc3c2-c2ccccc2Cl)cc1OC` [Example 22, 4-(2-chlorophenyl)-3-(3,4-dimethoxycinnamoylamino)-6,7-di-methylquinoline], for which, in experiment [1], the inhibition at 1 µM is 92.6%. Same read-out and setting: as for `COC(=O)c1ccc(C=CC(=O)Nc2cnc3c(C)cc(C)cc3c2-c2ccccc2Cl)cc1` [Example 23, 4-(2-chlorophenyl)-3-(4-methoxycarbonylcinnamoylamino)-6,8-dimethylquinoline], the figure is 65.9%; as for `COc1cccc(C=CC(=O)Nc2cnc3c(C)cc(C)cc3c2-c2ccccc2Cl)c1OC` [Example 24, 4-(2-chlorophenyl)-3-(2,3-dimethoxycinnamoylamino)-6,8-di-methylquinoline], 69.4%; as for `COc1ccc(OC)c(C=CC(=O)Nc2cnc3c(C)cc(C)cc3c2-c2ccccc2Cl)c1` [Example 25, 4-(2-chlorophenyl)-3-(2,5-dimethoxycinnamoylamino)-6,8-dimethylquinoline], 73.7%. In experiment [2], `COc1cc(C=CC(=O)Nc2cnc3c(C)cc(C)cc3c2-c2ccccc2Cl)cc(OC)c1OC(C)=O` [Example 27, 3-(4-acetoxy-3,5-dimethoxylcinnamoylamino)-4-(2-chlorophenyl)-6,8-dimethylquinoline] displayed a Lipoperoxide inhibition rate of 90.2%. Further, the inhibition at 1 µM in experiment [1] was 83.7%. With `Cc1cc(C)c2ncc(NC(=O)C=Cc3cccc(O)c3O)c(-c3ccccc3Cl)c2c1` [Example 32, 4-(2-chlorophenyl)-3-(2,3-dihydroxycinnamoylamino)-6,8-dimethylquinoline], in experiment [2], the Lipoperoxide inhibition rate is on record as 99.7% and the IC50 was 400 nM. Besides, the inhibition at 1 µM in experiment [1] came to 66.6%. As to `COc1cc(C=CC(=O)Nc2cnc3c(C)cc(C)cc3c2-c2ccccc2Cl)cc(OC)c1O` [Example 33, 4-(2-chlorophenyl)-3-(4-hydroxy-3,5-dimethoxycinnamonylamino)-6,8-dimethylquinoline], in experiment [2], the Lipoperoxide inhibition rate came to 96.1% and the IC50 is 1300 nM. In addition, in experiment [1], the inhibition at 1 µM was determined as 81.7%. In turn, `Cc1cc(C)c2ncc(NC(=O)C=Cc3cc(C)c(O)c(C)c3)c(-c3ccccc3Cl)c2c1` [Example 34, 4-(2-chlorophenyl)-3-(4-hydroxy-3,5-dimethylcinnamoylamino)-6,8-dimethylquinoline] returned a Lipoperoxide inhibition rate in experiment [2] of 62.1%. The inhibition at 1 µM in experiment [1] stood at 86.4%. In the case of `Cc1cc(C)c2ncc(NC(=O)C=Cc3cc(C)c(O)c(C)c3C)c(-c3ccccc3Cl)c2c1` [Example 35, 4-(2-chlorophenyl)-3-(4-hydroxy-2,3,-trimethylcinnamoylamino)-6,8-dimethylquinoline], in experiment [2], the Lipoperoxide inhibition rate amounted to 84.9% and the IC50 stood at 810 nM. Besides, in experiment [1], the inhibition at 1 µM came out at 81.7%. On to `COc1ccc(C=CC(=O)Nc2c(-c3ccccc3Cl)c3cc(C)cc(C)c3n(C)c2=O)cc1OC` [Example 36, 4-(2-chlorophenyl)-3-(3,4-dimethoxycinnamoylamino)-1,6,8-trimethyl-2(1H)-quinolone], for which the inhibition at 1 µM in experiment [1] amounted to 63%. With `Cc1cc(C)c2ncc(NC(=O)C=Cc3ccc(O)c(O)c3)c(-c3ccccc3Cl)c2c1` [Example 38, 4-(2-chlorophenyl)-3-(3,4-dihydroxycinnamoylamino)-6,8-dimethylquinoline], in experiment [1], the inhibition at 1 µM was determined as 78.2%. On to `O=C(C=Cc1ccc(O)c(O)c1)Nc1cnc2ccc(Cl)cc2c1-c1ccccc1Cl` [Example 43, 6-chloro-4-(2-chlorophenyl)-3-(3,4-dihydroxycinnamoylamino)quinoline], for which, in experiment [1], the inhibition at 1 µM is 97%. For the molecule `COc1ccc(C=CC(=O)Nc2cnc3c(C)cc(C)cc3c2-c2ccccc2Cl)c(OC)c1OC` [Example 46, 4-(2-chlorophenyl)-6,8-dimethyl-3-(2,3,4-trimethoxycinnamoylamino) quinoline], the inhibition at 1 µM in experiment [1] came to 72.6%.

For orientation: inhibition means the percentage by which the read-out fell short of the control.
